Columns and labels:
[1] = system: HDAC (Hela Nuclear Extract); assay: Activity Assay 5: in vitro HDAC fluorescent activity assay (Biomol kit); type: biochemical; conditions: compounds reduced with DTT prior to analysis, 37° C., 1 hour, read-out: Inhibition of HDAC activity IC50
Experimental: We analysed the ability of compounds to inhibit in vitro HDAC activity. In vitro HDAC assays were performed using a HDAC fluorescent activity assay kit (Biomol, UK) according to the manufacturer's instructions. Compounds were reduced prior to analysis; 1 mM compound was reduced with 30 mM DTT in DMSO overnight at room temperature, protected from light. Reactions were then set up in a 96-well plate. […] Serial dilutions were set up for each compound. Reactions containing Hela extract only and assay buffer only were also set up. 25 μl diluted Fluor de Lys™ substrate (100-fold in assay buffer) was added to each reaction, which were then incubated at 37° C. for 1 hour. The reaction was stopped by addition of 50 μl Fluor de Lys™ Developer (20-fold dilution in assay buffer, plus TSA diluted 100-fold). […] Inhibition of in vitro HDAC activity was determined for mean values of duplicate samples as percentages relative to HeLa extract only reactions. IC50 values were calculated using GraphPad Prism software.

MCF7 breast cancer cells = assay: Activity Assay 6: CyQuant cell growth inhibition, MCF7; type: cell-based; conditions: Homo sapiens, 144 h, MCF7, 6 days
Experimental: (§1) We analysed the ability of compounds to inhibit the in vitro growth of human cancer cells. Cell proliferation assays were performed using the CyQuant™ assay system (Molecular Probes, Inc. USA) according to the manufacturer's instructions. MCF7 breast, A2780 ovarian and PC3 and LNCAP prostate cancer cells were plated in 96 well plates, at a density of 1000 cells for MCF7 cells or 5000 cells for M780/PC3/LNCAP cells, in 100 μl of cell culture medium per well. Compounds were added a minimum of 5 hours later, in serial dilutions in cell culture medium, in 100 μl volumes at 2× final concentration. Cell culture medium was removed after 4 (A2780, PC3 or LNCAP cells) or 6 days (MCF7 cells) by inversion of the plate onto blotting paper and cells were gently washed once with 200 μl PBS. Plates were frozen immediately for a minimum of one hour at −80° C. and then thawed. 200 μl of 1× CyQuant cell lysis buffer supplemented with dye, made according to the manufacturer's instruction, was added immediately to each well and incubated at room temperature for 3-5 minutes. Fluorescence was then measured for each well using a Cytofluor II Fluoresence Multiwell Plate Reader and CytoFluor II software with filters at 480 nm for excitation and 520 nm for emission maxima. Cell proliferation was determined for mean values of duplicate samples as percentages relative to untreated cell samples (=100%). Growth inhibition curves were used to derive IC50 values.

[2] = system: TNFα production from peripheral blood mononuclear cells (PBMCs); assay: Activity Assay 7: LPS-induced TNFα secretion from PBMCs (QUANTIKINE immunoassay); type: cell-based; conditions: Homo sapiens, PBMC
Experimental: We analysed the ability of compounds to inhibit the production of TNFα from peripheral blood mononuclear cells (PBMCs). TNF-α immunoassays were carried out using the QUANTIKINE® Human TNF-α assay kit (R&D systems, Abingdon UK) according to the manufacturer's instructions. […] Compounds were added 1 hour later in volumes of 100 μl at 6× final concentration. Five hours later lipopolysaccharide (LSP, Sigma, Poole, UK) was added in a volume of 10 μl at 60× final concentration. Plates were mixed and left overnight at 37° C. 5% C02. Plates were centrifuged and cell supernatant was transferred to a new plate. The QUANTIKINE® assay reagents and standards were prepared according to the manufacturer instructions. The QUANTIKINE® assay plate was prepared by adding 50 μl of assay diluent RD1F into each well. This was followed by 200 μl of standard or 100 μl of calibrator diluent plus 100 μl cell supernatant; this was incubated for 2 hours at room temperature (RT). The plate was washed using wash buffer 4 times. After the final wash the plate was tapped on clean paper towel to remove all residual buffer. 200 μl of TNF-α conjugate was added to each well and incubated for 1 hour at RT. The plate was then washed as before. The required amount of substrate solution was prepared by adding equal volumes of colour reagents A and B, protecting from light, 200 μl of this mix was added to each well and incubated for 20 mins at RT, protected from light. 50 μl of stop solution was added to each well in the same order as the substrate solution and the plate was read on a Biorad 680 96 well plate reader (Bio-Rad, Hemel Hempstead, UK) at 450 nm with λ correction at 570 nm. TNF-α levels were determined for mean values of duplicate samples using absorbance in nm, calibration zero values were subtracted from all results to correct for the addition of calibrator diluent in the assay.

[3] = system: A2780 ovarian cancer cells; assay: Activity Assay 6: CyQuant cell growth inhibition, A2780; type: cell-based; conditions: Homo sapiens, 96 h, A2780, 4 days
Experimental: as §1

[4] = system: PC3 prostate cancer cells; assay: Activity Assay 6: CyQuant cell growth inhibition, PC3; type: cell-based; conditions: Homo sapiens, 96 h, PC3, 4 days
Experimental: as §1

[5] = system: LNCAP prostate cancer cells; assay: Activity Assay 6: CyQuant cell growth inhibition, LNCAP; type: cell-based; conditions: Homo sapiens, 96 h, 4 days
Experimental: as §1

MCF7 cells = assay: Activity Assay 3: cell cycle distribution and survival by propidium iodide flow cytometry; type: cell-based; conditions: MCF7, ~10×IC50 for growth inhibition, 24, 48 or 72 hours
Experimental: Method; MCF7 cells were incubated with indicated concentrations of compounds, or left untreated as a control, for various times, as detailed in the figure legends. Cells were collected and the proportion of cells in different phases of the cell cycle determined using propidium iodide staining and flow cytometry as previously described (Purohit et al., Int J Ca 85, 584-9 2000). The proportion of cells with <G0/G1 content (pre G0) relative to total cells was calculated first. The proportion of cells in different cell cycle phases (G0/G1, S, G2/M) was calculated as a proportion of all cells in the cell cycle (i.e., total cells minus cells with <G0/G1 content).
MCF7 cells were incubated with the indicated concentrations of compounds (each equivalent to ˜10×IC50 values for growth inhibition), or DMSO as a solvent control, for 24, 48 or 72 hours. The proportion of cells in different phases of the cell cycle was determined by flow cytometry. Data shown are mean values ±SD, derived from two separate experiments, relative to untreated cells which are normalised to 1.

Row | SMILES | IC50 [1] | IC50 (MCF7 breast cancer cells) | inhibition at 0.0075 µM ([2]; Concentration 7.5 nM) | IC50 [3] | IC50 [4] | IC50 [5] | cell cycle distribution and survival (MCF7 cells) | inhibition at 0.2 µM ([2]; Concentration 200 nM)
1 | CC(C)[C@H]1NC(=O)C[C@H]2/C=C/CCSSC[C@@H](NC1=O)C(=O)N[C@H](C(C)C)C(=O)NCC(=O)O2 [Compound 9C, (E)-(1S,7R,10S,21R)-7,21-diisopropyl-2-oxa-12,13-dithia-5,8,20,23-tetraaza-bicyclo[8.7.6]tricos-16-ene-3,6,9,19,22-pentaone] | 9.9 nM | 5.2 nM |  |  |  |  |  | 
2 | CC(C)[C@H]1NC(=O)[C@H]2CSSCC/C=C/[C@H](CC(=O)N[C@H](CCC(=O)OC(C)(C)C)C(=O)N2)OC(=O)CNC1=O [Compound 9F, 3-((E)-(1S,7R,10S,21R)-7-Isopropyl-3,6,9,19,22-pentaoxo-2-oxa-12,13-dithia-5,8,20,23-tetraaza-bicyclo[8.7.6]tricos-16-en-21-yl)-propionic acid tert-butyl ester] | 8 nM | 1.6 nM | 68% | 3 nM | 0.8 nM | 6.7 nM |  | 
3 | O=C(CCCCCCC(=O)Nc1ccccc1)NO [SAHA, Suberoylanilide hydroxamic acid, reference compound] |  |  |  |  |  |  | induce a predominant G2/M phase arrest and cell death | 
4 | CC(C)[C@H]1NC(=O)[C@H]2CSSCC/C=C/[C@H](CC(=O)N[C@H](C)C(=O)N2)OC(=O)[C@@H](C)NC1=O [Compound 9E, (E)-(1S,4R,7R,10S,21R)-7-isopropyl-4,21-dimethyl-2-oxa-12,13-dithia-5,8,20,23-tetraaza-bicyclo[8.7.6]tricos-16-ene-3,6,9,19,22-pentaone] | 87 nM | 117 nM |  | 651 nM | 296 nM | 1190 nM |  | 84%
5 | CC(C)[C@H]1NC(=O)[C@H]2CSSCC/C=C/[C@H](CC(=O)N[C@H](Cc3ccccc3)C(=O)N2)OC(=O)CNC1=O [Compound 9B, (E)-(1S,7R,10S,21R)-21-benzyl-7-isopropyl-2-oxa-12,13-dithia-5,8,20,23-tetraaza-bicyclo[8.7.6]tricos-16-ene-3,6,9,19,22-pentaone] | 25 nM | 2.9 nM |  |  |  |  |  | 
6 | CC(C)[C@H]1NC(=O)[C@H]2CSSCC/C=C/[C@H](CC(=O)N[C@H](CCC(=O)O)C(=O)N2)OC(=O)CNC1=O [Compound 10F, 3-((E)-(1S,7R,10S,21R)-7-Isopropyl-3,6,9,19,22-pentaoxo-2-oxa-12,13-dithia-5,8,20,23-tetraaza-bicyclo[8.7.6]tricos-16-en-21-yl)-propionic acid] | 1.7 nM | 457 nM |  |  |  |  |  | 

Source: patent publication US7977304B2, “FK 228 derivates as HDAC inhibitors” (University of Southampton Highfield, priority 2005, dated 2011)
